Structures can show the parent of a compound that is named as a salt.
Key:
vascular permeability = test: Inhibitory effect on vascular permeability (acetic acid, Evans Blue, mice); type: in vivo, male ddY-strain mice; conditions: 100 mg/kg, p.o.
Protocol: Male ddY-strain mice were orally administered with the compound of examples in 5% arabic gum suspension. After 45 minutes, 1% Evans Blue dissolved in saline (0.1 ml/10 g body weight) was injected into tail vein, and immediately, 1% of acetic acid diluted in saline (0.1 ml/10 g body weight) was injected into peritoneal cavity. Thirty minutes later, each mouse was sacrificed and peritoneal cavity was washed with saline (2 ml/10 g body weight). Peritoneal exuded fluid was collected and centrifuged at 3,000 rpm for 10 minutes. The optical density of supernatant was read at 630 nm. The volume of Evans Blue was determined from the calibration curve and the inhibition ratio was calculated.

adjuvant arthritis = test: Therapeutic effect on the adjuvant arthritis in rats (swelling of non-injected hind paw); type: in vivo, female SD-strain rats; conditions: oral
Protocol: Heat-killed Mycobacterium butyricum (0.6 mg/rat) suspended in liquid paraffin was injected intradermally into right hind paw of female SD-strain rats. Test compounds suspended in 0.3% CMC solution were administered orally once a day for 7 days from 14 days to 20 days after the injection of adjuvant. The swelling of non-injected hind paw was measured by the water displacement method.

[1] = system: IgM antibody-producing cells; test: Effect on IgM antibody-producing cells in vivo (Jerne method); set-up: species or system BALB/c-strain mice; conditions: 12.5 mg/kg/day, oral 4 days, n 7
Protocol: To a BALB/c-strain mice were intraperitoneally injected with 5×10^8 /0.1 ml of sheep erythrocytes. The test compound was administered orally once a day for 4 days since the erythrocyte injection. On the next day of final administration, the spleen cells were isolated by finely mincing the spleen, centrifuged and suspended in medium (RPMI-1640+10% FCS). The number of IgM antibody-producing cells was counted by Jerne method.

[2] = system: IgM antibody-producing cells; test: Effect on IgM antibody-producing cells in vitro (Jerne method); type: cell-based, BDF1-strain mice; conditions: n 6; for IgM-PFC/culture (mean ± S.E.): reference 82 ± 15, *p < 0.01 (Dunnett's test)
Protocol: The spleen cells of BDF1 -strain mice were isolated by finely mincing the spleen, centrifuged, and suspended in medium (RPMI-1640+10% FCS). Each 50 μl of spleen cell suspension (2×10^7 cells/ml) and sheep erythrocyte suspension (1×10^7 cells/ml) was spread on a 96-well plate. Test compounds were dissolved in DMSO and diluted in medium. Then, 100 μl of medium containing test compounds were added to the 96-well plate. After the plate was incubated at 37° C. for 5 days in 5% CO2 incubator, the number of IgM antibody-producing cells was counted by Jerne method.

[3] = 25 mg/kg/day, 18 Days after adjuvant
[4] = 25 mg/kg/day, 21 Days after adjuvant
[5] = 25 mg/kg/day, 27 Days after adjuvant
[6] = 50 mg/kg/day, 18 Days after adjuvant
[7] = 50 mg/kg/day, 21 Days after adjuvant
[8] = 50 mg/kg/day, 27 Days after adjuvant

CCOC(=O)Cc1cc(Cl)c2c(c1)CCC(c1ccccc1F)N2 (stereo not drawn) [Example 4, Ethyl 8-chloro-2-(2-fluorophenyl)-1,2,3,4-tetrahydroquinoline-6-acetate]
Inhibition ratio (vascular permeability) (vascular permeability): 33.1%

O=C(O)Cc1cc(Cl)c2c(c1)CCC(c1ccccc1F)N2 (stereo not drawn) [Example 7, 8-Chloro-2-(2-fluorophenyl)-1,2,3,4-tetrahydroquinoline-6-acetic acid]
Inhibition ratio (vascular permeability) (vascular permeability): 51.1%
Inhibition ratio of swelling (adjuvant arthritis; [3]): 6%
Inhibition ratio of swelling (adjuvant arthritis; [4]): 19%
Inhibition ratio of swelling (adjuvant arthritis; [5]): 33%
Inhibition ratio of swelling (adjuvant arthritis; [6]): 36%
Inhibition ratio of swelling (adjuvant arthritis; [7]): 52%
Inhibition ratio of swelling (adjuvant arthritis; [8]): 50%
Inhibition ratio of swelling (adjuvant arthritis; 100 mg/kg/day, 18 Days after adjuvant): 59%
Inhibition ratio of swelling (adjuvant arthritis; 100 mg/kg/day, 21 Days after adjuvant): 64%
Inhibition ratio of swelling (adjuvant arthritis; 100 mg/kg/day, 27 Days after adjuvant): 64%

O=C(O)Cc1cc(Cl)c2c(c1)CCC(c1ccccc1)N2 (stereo not drawn) [Example 8, 8-Chloro-2-phenyl-1,2,3,4-tetrahydroquinoline-6-acetic acid]
Inhibition ratio (vascular permeability) (vascular permeability): 50.0%

COc1ccc(C2CCc3cc(CC(=O)O)cc(Cl)c3N2)cc1 (stereo not drawn) [Example 9, 8-Chloro-2-(4-methoxyphenyl)-1,2,3,4-tetrahydroquinoline-6-acetic acid]
Inhibition ratio (vascular permeability) (vascular permeability): 16.0%

CN1c2ccc(CC(=O)O)cc2CCC1c1ccccc1 (stereo not drawn) [Example 11, 1-Methyl-2-phenyl-1,2,3,4-tetrahydroquinoline-6-acetic acid]
Inhibition ratio (vascular permeability) (vascular permeability): 42.7%

CN1c2c(Cl)cc(CC(=O)O)cc2CCC1c1ccccc1 (stereo not drawn) [Example 12, 8-Chloro-1-methyl-2-phenyl-1,2,3,4-tetrahydroquinoline-6-acetic acid]
Inhibition ratio (vascular permeability) (vascular permeability): 52.7%

O=C(O)Cc1cc(Cl)c2c(c1)CCC(C(F)(F)F)N2 (stereo not drawn) [Example 15, 8-Chloro-1,2,3,4-tetrahydro-2-trifluoromethylquinoline-6-acetic acid]
Inhibition ratio (IgM-PFC in vivo) [1]: 35%
IgM-PFC/spleen (× 10^2) (mean ± S.E.) ([1]; reference 995 ± 55, *p < 0.05 (Dunnett's test)): 651 ± 49 IgM-PFC/spleen (× 10^2)
Inhibition ratio (vascular permeability) (vascular permeability): 29.1%
IgM-PFC/culture (mean ± S.E.) ([2]; 2 × 10^-6 M): 24 ± 3 IgM-PFC/culture
IgM-PFC/culture (mean ± S.E.) ([2]; 5 × 10^-5 M): 31 ± 9 IgM-PFC/culture
inhibition at 2 µM ([2]; Mus musculus, 120 h, 2 × 10^-6 M, read-out: Inhibition ratio (IgM-PFC in vitro)): 71%
inhibition at 50 µM ([2]; Mus musculus, 120 h, 5 × 10^-5 M, read-out: Inhibition ratio (IgM-PFC in vitro)): 62%
Inhibition ratio of swelling (adjuvant arthritis; 12.5 mg/kg/day, 18 Days after adjuvant): 21%
Inhibition ratio of swelling (adjuvant arthritis; 12.5 mg/kg/day, 21 Days after adjuvant): 36%
Inhibition ratio of swelling (adjuvant arthritis; 12.5 mg/kg/day, 27 Days after adjuvant): 50%
Inhibition ratio of swelling (adjuvant arthritis; [3]): 39%
Inhibition ratio of swelling (adjuvant arthritis; [4]): 45%
Inhibition ratio of swelling (adjuvant arthritis; [5]): 52%
Inhibition ratio of swelling (adjuvant arthritis; [6]): 39%
Inhibition ratio of swelling (adjuvant arthritis; [7]): 56%
Inhibition ratio of swelling (adjuvant arthritis; [8]): 58%

O=C(O)Cc1ccc2c(c1)CCC(C(F)(F)F)N2 (stereo not drawn) [Example 16, 1,2,3,4-Tetrahydro-2-trifluoromethylquinoline-6-acetic acid]
Inhibition ratio (vascular permeability) (vascular permeability): 37.3%

O=C(O)Cc1cc(Br)c2c(c1)CCC(C(F)(F)F)N2 (stereo not drawn) [Example 23, 8-Bromo-1,2,3,4-tetrahydro-2-trifluoromethylquinoline-6-acetic acid]
Inhibition ratio (vascular permeability) (vascular permeability): 38.6%

N#Cc1cc(CC(=O)O)cc2c1NC(C(F)(F)F)CC2 (stereo not drawn) [Example 24, 8-Cyano-1,2,3,4-tetrahydro-2-trifluoromethylquinoline-6-acetic acid]
Inhibition ratio (vascular permeability) (vascular permeability): 25.9%

O=C(O)Cc1cc2c(c(-c3ccccc3)c1)NC(C(F)(F)F)CC2 (stereo not drawn) [Example 27, 8-Phenyl-1,2,3,4-tetrahydro-2-trifluoromethylquinoline-6-acetic acid]
Inhibition ratio (vascular permeability) (vascular permeability): 27.0%

CC(=O)c1cc(CC(=O)O)cc2c1NC(C(F)(F)F)CC2 (stereo not drawn) [Example 28, 8-Acetyl-1,2,3,4-tetrahydro-2-trifluoromethylquinoline-6-acetic acid]
Inhibition ratio (vascular permeability) (vascular permeability): 16.7%

CSc1cc(CC(=O)O)cc2c1NC(C(F)(F)F)CC2 (stereo not drawn) [Example 29, 8-Methylthio-1,2,3,4-tetrahydro-2-trifluoromethylquinoline-6-acetic acid]
Inhibition ratio (vascular permeability) (vascular permeability): 18.4%

O=C(O)Cc1cc2c(c(C(=O)c3ccccc3)c1)NC(C(F)(F)F)CC2 (stereo not drawn) [Example 32, Sodium salt of 8-benzoyl-1,2,3,4-tetrahydro-2-trifluoromethylquinoline-6-acetic acid]
Inhibition ratio (vascular permeability) (vascular permeability): 19.7%

O=C(O)Cc1cc2c(c([N+](=O)[O-])c1)NC(C(F)(F)F)CC2 (stereo not drawn) [Example 33, 8-Nitro-1,2,3,4-tetrahydro-2-trifluoromethylquinoline-6-acetic acid]
Inhibition ratio (vascular permeability) (vascular permeability): 25.4%

— patent publication US5359076A, “Cyclic aminophenylacetic acid derivatives, process for preparing the same and immune response modulator having the same as an effective ingredient” (Kyorin Pharmaceutical Co., Ltd., priority 1991, dated 1994)
